Experimental data: patent US20260165973A1 (MERCK SHARP & DOHME LLC, priority 2023, published 2026)

Legend:
[1] = open container at 5° C./ambient RH, 30° C./65% RH, 40° C./75% RH, and 60° C./ambient RH; cited from earlier work
[2] = Solubility / solubilization assessment of doravirine and islatravir; format: physicochemical; settings: islatravir: in water and dissolution media
Text: Details are provided in Example 5.
The manufacturing process includes standard unit operations and equipment for tablet production.

| Solubility [2] | SMILES | Time to crystallization on storage [1] |
| --- | --- | --- |
|  | Cn1c(Cn2ccc(C(F)(F)F)c(Oc3cc(Cl)cc(C#N)c3)c2=O)n[nH]c1=O [Neat amorphous doravirine, 3-chloro-5-({1-[(4-methyl-5-oxo-4,5-dihydro-1H-1,2,4-triazol-3-yl)methyl]-2-oxo-4-(trifluoromethyl)-1,2-dihydropyridin-3-yl}oxy)benzonitrile] | ≤ 2 weeks |
| high solubility | C#C[C@@]1(CO)O[C@H](n2cnc3c(N)nc(F)nc32)C[C@H]1O [islatravir, (2S,3R,5S)-5-(6-amino-2-fluoro-9H-purin-9-yl)-2-ethynyl-2-(hydroxymethyl)tetrahydrofuran-3-ol] |  |
